Source: PMC9977316, “The kidney drug transporter OAT1 regulates gut microbiome–dependent host metabolism” (JCI Insight, 2023)

Tests used:
OAT1 [1] = target: T1, OAT1 (Homo sapiens, UniProt Q4U2R8); parameters: The full-length protein was expressed as GFP fusion in HEK293 cells to check for protein expression; GFP; FLAG (inferred from capture on anti-flag antibody beads); made in house; host or cells: HEK293 cells, third-generation lentiviral vector; details: cited from earlier work
T1 sequence (Q4U2R8 1-563): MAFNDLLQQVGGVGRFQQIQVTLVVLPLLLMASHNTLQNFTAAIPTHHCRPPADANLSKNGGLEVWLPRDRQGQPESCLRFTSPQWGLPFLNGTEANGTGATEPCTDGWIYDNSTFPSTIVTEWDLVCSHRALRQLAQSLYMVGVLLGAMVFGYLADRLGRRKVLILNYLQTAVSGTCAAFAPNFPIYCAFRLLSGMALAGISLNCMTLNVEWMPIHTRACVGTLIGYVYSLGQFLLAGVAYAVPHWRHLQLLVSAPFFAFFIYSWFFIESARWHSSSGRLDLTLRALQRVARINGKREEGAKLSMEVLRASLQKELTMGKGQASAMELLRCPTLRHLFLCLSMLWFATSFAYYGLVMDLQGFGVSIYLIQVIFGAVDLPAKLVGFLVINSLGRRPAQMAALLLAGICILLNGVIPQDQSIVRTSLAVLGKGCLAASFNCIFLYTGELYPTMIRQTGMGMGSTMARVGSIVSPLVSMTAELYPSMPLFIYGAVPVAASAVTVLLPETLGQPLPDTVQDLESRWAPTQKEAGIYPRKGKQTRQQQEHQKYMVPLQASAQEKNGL

OAT1 [2] = target: T2, OAT1 (Mus musculus, UniProt Q8VC69); test: Tc-99m MAG3 imaging and postmortem γ counts in Oat1-KO and WT mice; type: in vivo; details: WT vs Oat1-KO
T2 construct: from tissue; host or cells: living mice (kidney proximal tubule); Oat1-KO versus WT
T2 sequence (Q8VC69 1-545): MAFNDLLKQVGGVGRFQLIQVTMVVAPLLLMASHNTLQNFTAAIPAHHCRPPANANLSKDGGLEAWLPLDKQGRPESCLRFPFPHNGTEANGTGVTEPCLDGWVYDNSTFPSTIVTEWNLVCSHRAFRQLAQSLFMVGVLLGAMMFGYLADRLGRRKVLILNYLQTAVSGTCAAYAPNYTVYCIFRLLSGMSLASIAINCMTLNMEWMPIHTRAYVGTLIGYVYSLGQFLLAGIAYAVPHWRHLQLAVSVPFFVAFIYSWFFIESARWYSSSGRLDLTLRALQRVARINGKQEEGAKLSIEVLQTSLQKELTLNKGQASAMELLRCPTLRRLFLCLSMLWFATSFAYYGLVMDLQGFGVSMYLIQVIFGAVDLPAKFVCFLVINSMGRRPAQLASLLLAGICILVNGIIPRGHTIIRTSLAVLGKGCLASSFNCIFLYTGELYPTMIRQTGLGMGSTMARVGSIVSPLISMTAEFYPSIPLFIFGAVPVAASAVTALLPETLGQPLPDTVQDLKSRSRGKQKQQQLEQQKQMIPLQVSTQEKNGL
Method: Live-imaging experiments were performed with the In Vivo Imaging Shared Resource at the Moore’s Cancer Center at the UCSD. Mice were transported from the vivarium to the In Vivo Imaging Shared Resource. In total, 100 μCi of Tc-99m MAG3 was injected by tail vein into mice prior to imaging. Adult, male KO (n = 5) and WT mice (n = 5) were imaged in 5 separate pairs containing 1 KO mouse and 1 WT mouse each. Mice were initially weighed and anesthetized (2% isoflurane, 200 mL/min flow of O2). Mice were placed on their backs on the high-resolution γ imager (γ imager; BioSpace) fitted with a high-resolution, low-energy collimator. For 30 minutes, time-activity curves were collected from the kidneys, liver, and bladder. Following imaging, blood, urine, kidneys, liver, and spleen were isolated and weighed from each mouse for radioactive assessment using a γ counter.

Row | Compound | In vitro cell–based transport assay (OAT1 [1]) | bladder levels, postmortem γ counts scaled to weight (OAT1 [2]; 4 of 5 pairs) | blood levels, postmortem γ counts scaled to weight (OAT1 [2]; 4 of 5 pairs) | time to maximal bladder levels (OAT1 [2]; tail-vein injection, 30 minutes, γ camera)
1 | NCCc1c[nH]c2ccc(O)cc12 [Serotonin] | × (17) | – | – | –
2 | Tc-99m mercaptoacetyl-triglycine [Tc-99m MAG3] | – | higher in the WT mice | higher in the KO mice | WT bladders reached their maximal levels of Tc-99m MAG3 more quickly than the Oat1-KO mice
